Measured values reported in patent US20230131899A1, “INHIBITORS OF MICROBIALLY INDUCED AMYLOID” (Axial Therapeutics, Inc., priority 2020, published 2023).
Like-named read-outs stand apart in the source and are kept apart here.

Legend:
[1] = tested on: CsgA expression in E. coli MC4100; test: Monocolonized Mouse Model: csgA expression in fecal pellets by qRT-PCR; settings: 30 mg/kg, day five of treatment, relative to mice treated with vehicle alone (FIGS. 4A-B)
[2] = biological target: T1, E. coli CsgA (Escherichia coli, UniProt P28307); test: In vitro ThioflavinT assay of CsgA aggregation (CsgA ThT Assay); format: biochemical; settings: for remaining activity at 25 µM: compound 25 μM; for remaining activity at 100 µM: compound 100 μM
T1 construct: made in house; host or cells: E. coli NEB 3016 slyD::kan, pET11d
In short: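 Purified C-terminal His-tagged CsgA, monomerised by desalting and 30-kDa filtration, at 2-20 μM with 20-40 μM ThT in 50 mM potassium phosphate pH 7.3, 1% DMSO, compounds 3.125-200 uM; room temperature, fluorescence (ex 438/em 495 nm) read every 15 min. Background-subtracted signal expressed as percent inhibition versus vehicle at 6-6.5 or 8-9 h, or as percent control AUC.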

[3] = tested on: time to descend from a pole; test: Pole descent test in MC4100 mice treated with compound vs control chow (FIG. 7); format: in vivo, mouse; settings: 18-20 weeks of age; vs MC-4100 control chow group
[4] = tested on: fecal water content; test: Fecal water content in MC4100 mice treated with compound vs control chow (FIG. 6); format: in vivo, mouse; settings: 12-14 weeks of age; vs MC4100-control chow group
[5] = tested on: number of fecal pellets; test: Fecal pellet output in MC4100 mice treated with compound vs control chow (FIG. 5); format: in vivo, mouse; settings: 12-14 weeks of age; compared to MC4100-control chow group; statistical difference was not reached
[6] = tested on: csgA expression in E. coli MC4100; test: csgA expression relative to housekeeping genes recA and cysG in E. coli MC4100 monocolonized mice (FIGS. 8A-D); format: in vivo
[7] = read-out: CsgA ThT Assay (10 μM CsgA) % Control AUC at 1005 minutes, 25 μM (activity range), CsgA 10 μM, black plates, 1005 minutes, class symbol
[8] = read-out: CsgA ThT Assay (10 μM CsgA) % Control AUC at 1005 minutes, 25 μM, mean AUC as % of DMSO control, CsgA 10 μM, black plates, 1005 minutes
[9] = read-out: CsgA ThT Assay (10 μM CsgA) % Control AUC at 1005 minutes, 100 μM (activity range), CsgA 10 μM, black plates, 1005 minutes, class symbol
[10] = read-out: CsgA ThT Assay (10 μM CsgA) % Control AUC at 1005 minutes, 100 μM, mean AUC as % of DMSO control, CsgA 10 μM, black plates, 1005 minutes
[11] = read-out: CsgA ThT Assay (2 μM CsgA) % Control Bmax 25 μM, activity range, class symbol, CsgA 2 μM, white plates
[12] = read-out: CsgA ThT Assay (2 μM CsgA) % Control Bmax 25 μM, mean Bmax as percentage of DMSO control, CsgA 2 μM, white plates
[13] = read-out: CsgA ThT Assay (2 μM CsgA) % Control Bmax 100 μM, activity range, class symbol, CsgA 2 μM, white plates
[14] = read-out: CsgA ThT Assay (2 μM CsgA) % Control Bmax 100 μM, mean Bmax as percentage of DMSO control, CsgA 2 μM, white plates

T1 sequence (P28307 23-151): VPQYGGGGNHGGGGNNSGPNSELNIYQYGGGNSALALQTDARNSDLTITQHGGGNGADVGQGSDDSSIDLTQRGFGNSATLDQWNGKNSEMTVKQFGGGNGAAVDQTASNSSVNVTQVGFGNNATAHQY

CN1CC(C(=O)O)n2c(c(-c3cccc(C(F)(F)F)c3)c(Cc3cccc4ccccc34)c(NC3CCCC3)c2=O)S1(=O)=O (stereo not shown) [Compound 070, 7-(cyclopentylamino)-2-methyl-8-(naphthalen-1-ylmethyl)-6-oxo-9-(3-(trifluoromethyl)phenyl)-3,4-dihydro-2H,6H-pyrido[1,2-e][1,2,5]thiadiazine-4-carboxylic acid 1,1-dioxide]
csgA expression in E. coli MC4100 monocolonized mice [1]: reduction of csgA expression | remaining activity at 25 µM [2, 7]: 11 to 31% | remaining activity at 25 µM [2, 8]: 17% | remaining activity at 100 µM [2, 9]: 11 to 31% | remaining activity at 100 µM [2, 10]: 29%

O=C(O)[C@@H]1CN(Cc2ccccc2)c2c(-c3cccc(C(F)(F)F)c3)c(Cc3cccc4ccccc34)c(Cl)c(=O)n21 (single isomer, unassigned) [Compound 004a]
time to descend from a pole into a home cage [3]: trend towards improvement of the phenotype | fecal water content [4]: restored a constipation phenotype | number of fecal pellets a mouse produced at 15 min interval [5]: overall increase in number of fecal pellets | csgA expression relative to housekeeping genes recA and cysG ([6]; 12-14 weeks of age): reduction of csgA expression | csgA expression relative to housekeeping genes recA and cysG ([6]; 14-16 weeks of age): repeated and observed again | remaining activity at 25 µM [2, 11]: > 60% | remaining activity at 25 µM [2, 12]: 64% | remaining activity at 100 µM [2, 13]: 11 to 31% | remaining activity at 100 µM [2, 14]: 24%

Cn1c(=O)c2c(nc(CCCCCCCN3CC(C(=O)O)n4c(c(-c5cccc(C(F)(F)F)c5)c(Cc5cccc6ccccc56)cc4=O)S3(=O)=O)n2C)n(C)c1=O (stereo not shown) [Compound 047, 8-(naphthalen-1-ylmethyl)-6-oxo-9-(3-(trifluoromethyl)phenyl)-2-(7-(1,3,7-trimethyl-2,6-dioxo-2,3,6,7-tetrahydro-1H-purin-8-yl)heptyl)-3,4-dihydro-2H,6H-pyrido[1,2-e][1,2,5]thiadiazine-4-carboxylic acid 1,1-dioxide]
remaining activity at 25 µM [2, 7]: 31 to 60% | remaining activity at 25 µM [2, 8]: 55% | remaining activity at 100 µM [2, 9]: > 60% | remaining activity at 100 µM [2, 10]: 71%

O=C(O)C1CN(Cc2ccccc2)c2c(-c3cccc(C(F)(F)F)c3)c(Cc3cccc4ccccc34)c(F)c(=O)n21 (stereo not shown) [Compound 194, 1-benzyl-6-fluoro-7-(naphthalen-1-ylmethyl)-5-oxo-8-(3-(trifluoromethyl)phenyl)-1,2,3,5-tetrahydroimidazo[1,2-a]pyridine-3-carboxylic acid]
remaining activity at 25 µM [2, 11]: > 60% | remaining activity at 25 µM [2, 12]: 100% | remaining activity at 100 µM [2, 13]: > 60% | remaining activity at 100 µM [2, 14]: 67%

Cn1c(=O)c2c(ncn2CCCCCCCN2CC(C(=O)O)n3c(c(-c4cccc(C(F)(F)F)c4)c(Cc4cccc5ccccc45)cc3=O)S2(=O)=O)n(C)c1=O (stereo not shown) [Compound 036]
remaining activity at 25 µM [2, 7]: > 60% | remaining activity at 25 µM [2, 8]: 65%

O=C(O)C1CSc2c(-c3cccc(C(F)(F)F)c3)c(Cc3cccc4ccccc34)c(CO)c(=O)n21 (stereo not shown) [Compound 057, 6-(hydroxymethyl)-7-(naphthalen-1-ylmethyl)-5-oxo-8-(3-(trifluoromethyl)phenyl)-2,3-dihydro-5H-thiazolo[3,2-a]pyridine-3-carboxylic acid]
remaining activity at 25 µM [2, 7]: 31 to 60% | remaining activity at 25 µM [2, 8]: 59% | remaining activity at 100 µM [2, 9]: 11 to 31% | remaining activity at 100 µM [2, 10]: 24%

O=C(O)c1c(-c2ccccc2)sc2c(-c3cccc(C(F)(F)F)c3)c(Cc3cccc4ccccc34)cc(=O)n12 [Compound 051, 7-(naphthalen-1-ylmethyl)-5-oxo-2-phenyl-8-(3-(trifluoromethyl)phenyl)-5H-thiazolo[3,2-a]pyridine-3-carboxylic acid]
remaining activity at 25 µM [2, 7]: > 60% | remaining activity at 25 µM [2, 8]: 81% | remaining activity at 100 µM [2, 9]: 31 to 60% | remaining activity at 100 µM [2, 10]: 54%

O=C(O)C1CN(Cc2ccccc2)c2c(-c3cccc(C(F)(F)F)c3)c(C(F)(F)c3cccc4ccccc34)c(Br)c(=O)n21 (stereo not shown) [Compound 155, 1-benzyl-6-bromo-7-(difluoro(naphthalen-1-yl)methyl)-5-oxo-8-(3-(trifluoromethyl)phenyl)-1,2,3,5-tetrahydroimidazo[1,2-a]pyridine-3-carboxylic acid]
remaining activity at 25 µM [2, 11]: 31 to 60% | remaining activity at 25 µM [2, 12]: 57% | remaining activity at 100 µM [2, 13]: > 60% | remaining activity at 100 µM [2, 14]: 112%

Cn1c(=O)c2c(nc(CCCCCCN3CC(C(=O)O)n4c(c(-c5cccc(C(F)(F)F)c5)c(Cc5cccc6ccccc56)cc4=O)S3(=O)=O)n2C)n(C)c1=O (stereo not shown) [Compound 046, 8-(naphthalen-1-ylmethyl)-6-oxo-9-(3-(trifluoromethyl)phenyl)-2-(6-(1,3,7-trimethyl-2,6-dioxo-2,3,6,7-tetrahydro-1H-purin-8-yl)hexyl)-3,4-dihydro-2H,6H-pyrido[1,2-e][1,2,5]thiadiazine-4-carboxylic acid 1,1-dioxide]
remaining activity at 25 µM [2, 7]: 31 to 60% | remaining activity at 25 µM [2, 8]: 55% | remaining activity at 100 µM [2, 9]: 31 to 60% | remaining activity at 100 µM [2, 10]: 55%
